Source: patent US11542273B2, “Amide compound having bet proteolysis-inducing action and medicinal application thereof” (MITSUBISHI TANABE PHARMA CORPORATION, priority 2018, dated 2023)

Legend:
[1] = tested on: human prostate cancer LNCaP cells; assay: Cytotoxic action on cancer cells (WST-8, 96 hr); assay type: cell-based; conditions: Homo sapiens, LNCaP, 96 h, read-out: LNCaP cytotoxic activity: IC50
Method in brief: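 Viable cell number, measured by WST-8, is compared with compound-free cultures after treatment. Cells are kept in 10% FBS/RPMI1640 at 37° C under 5% CO2, and IC50 comes from the line joining the two survival rates that bracket 50%.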

BRD4 protein = BRD4 protein (Homo sapiens (Human), UniProt O60885); assay: BRD4 protein degradation inducing action in cancer cells (immunofluorescence, Operetta); assay type: cell-based; conditions: LNCaP cells, 6 hr treatment, fluorescence intensity
Method in brief: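 LNCaP prostate cancer cells in 10% FBS/RPMI1640 were exposed to compound for 6 hr at 37° C, then fixed, permeabilized and immunostained for BRD4 with Alexa Fluor 488 or 546 secondary antibodies plus Hoechst nuclear stain. Fluorescence was read by high-content imaging; DC50 is the concentration giving 50% of untreated signal, interpolated linearly between bracketing points.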

DC50 (BRD4 protein) [nM]	Compound	IC50 [1] [nM]
0.11	COC(=O)C[C@@H]1N=C(c2ccc(-c3ccc(OCC(=O)N[C@H](C(=O)N4C[C@H](O)C[C@H]4C(=O)N[C@@H](C)c4ccc(-c5scnc5C)cc4)C(C)(C)C)nc3)cc2)c2c(sc(C)c2C)-n2c(C)nnc21 [Example 63, methyl [(6S)-4-(4-{6-[2-({(2S)-1-[(2S,4R)-4-hydroxy-2-({(1S)-1-[4-(4-methyl-1,3-thiazol-5-yl)phenyl]ethyl}carbamoyl)pyrrolidin-1-yl]-3,3-dimethyl-1-oxobutan-2-yl}amino)-2-oxoethoxy]pyridin-3-yl}phenyl)-2,3,9-trimethyl-6H-thieno[3,2-f][1,2,4]triazolo[4,3-a][1,4]diazepin-6-yl]acetate]	0.037
0.66	Cc1ncsc1-c1ccc([C@H](C)NC(=O)[C@@H]2C[C@@H](O)CN2C(=O)[C@@H](NC(=O)c2ccc(-c3ccc(C4=N[C@@H](C)c5nnc(C)n5-c5sc6c(c54)CCC6)cc3)cc2)C(C)(C)C)cc1 [Example 200, (2S,4R)-1-[(2S)-2-({4′-[(45)-1,4-dimethyl-8,9-dihydro-4H,7H-cyclopenta[4,5]thieno[3,2-f][1,2,4]triazolo[4,3-a] [1,4]diazepin-6-yl][1,1′-biphenyl]-4-carbonyl}amino)-3,3-dimethylbutanoyl]-4-hydroxy-N-{(1S)-1-[4-(4-methyl-1,3-thiazol-5-yl)phenyl]ethyl}pyrrolidine-2-carboxamide]	0.38
0.24	COC(=O)C[C@@H]1N=C(c2ccc(-c3ccc(OCC(=O)N[C@H](C(=O)N4C[C@H](O)C[C@H]4C(=O)N[C@@H](C)c4ccc(-c5scnc5C)cc4)C(C)(C)C)cc3C)cc2)c2c(sc(C)c2C)-n2c(C)nnc21 [Example 49, methyl [(6S)-4-{4′-[2-({(2S)-1-[(2S,4R)-4-hydroxy-2-({(1S)-1-[4-(4-methyl-1,3-thiazol-5-yl)phenyl]ethyl}carbamoyl)pyrrolidin-1-yl]-3,3-dimethyl-1-oxobutan-2-yl}amino)-2-oxoethoxy]-2′-methyl[1,1′-biphenyl]-4-yl}-2,3,9-trimethyl-6H-thieno[3,2-f][1,2,4]triazolo[4,3-a] [1,4]diazepin-6-yl]acetate]	0.12
0.44	COC(=O)C[C@@H]1N=C(c2ccc(-c3ccc(C(=O)N[C@H](C(=O)N4C[C@H](O)C[C@H]4C(=O)N[C@@H](C)c4ccc(-c5scnc5C)cc4)C(C)(C)C)c(F)c3F)cc2)c2c(sc(C)c2C)-n2c(C)nnc21 [Example 176, methyl {(6S)-4-[2′,3′-difluoro-4′-({(2S)-1-[(2S,4R)-4-hydroxy-2-({(1S)-1-[4-(4-methyl-1,3-thiazol-5-yl)phenyl]ethyl}carbamoyl)pyrrolidin-1-yl]-3,3-dimethyl-1-oxobutan-2-yl}carbamoyl)[1,1′-biphenyl]-4-yl]-2,3,9-trimethyl-6H-thieno[3,2-f][1,2,4]triazolo[4,3-a][1,4]diazepin-6-yl}acetate]	0.39
0.031	COC(=O)C[C@@H]1N=C(c2ccc(-c3ccc4nc(C(=O)N[C@H](C(=O)N5C[C@H](O)C[C@H]5C(=O)N[C@@H](C)c5ccc(-c6scnc6C)cc5)C(C)(C)C)oc4c3)cc2)c2c(sc(C)c2C)-n2c(C)nnc21 [Example 181, methyl [(6S)-4-{4-[2-({(2S)-1-[(2S,4R)-4-hydroxy-2-({(1S)-1-[4-(4-methyl-1,3-thiazol-5-yl)phenyl]ethyl}carbamoyl)pyrrolidin-1-yl]-3,3-dimethyl-1-oxobutan-2-yl}carbamoyl)-1,3-benzoxazol-6-yl]phenyl}-2,3,9-trimethyl-6H-thieno[3,2-f][1,2,4]triazolo[4,3-a][1,4]diazepin-6-yl]acetate]	0.037
0.31	COC(=O)C[C@@H]1N=C(c2ccc(-c3c(F)ccc(C(=O)N[C@H](C(=O)N4C[C@H](O)C[C@H]4C(=O)N[C@@H](C)c4ccc(-c5scnc5C)cc4)C(C)(C)C)c3F)cc2)c2c(sc(C)c2C)-n2c(C)nnc21 [Example 174, methyl {(6S)-4-[2′,6′-difluoro-3′-({(2S)-1-[(2S,4R)-4-hydroxy-2-({(1S)-1-[4-(4-methyl-1,3-thiazol-5-yl)phenyl]ethyl}carbamoyl)pyrrolidin-1-yl]-3,3-dimethyl-1-oxobutan-2-yl}carbamoyl)[1,1′-biphenyl]-4-yl]-2,3,9-trimethyl-6H-thieno[3,2-f][1,2,4]triazolo[4,3-a][1,4]diazepin-6-yl}acetate]	0.37
0.066	COC(=O)C[C@@H]1N=C(c2ccc(-c3ccc(OCC(=O)N[C@H](C(=O)N4C[C@H](O)C[C@H]4C(=O)N[C@@H](C)c4ccc(-c5scnc5C)cc4)C(C)(C)C)cc3)cc2)c2c(sc(C)c2C)-n2c(C)nnc21 [Example 15, methyl [(6S)-4-{4′-[2-({(2S)-1-[(2S,4R)-4-hydroxy-2-({(1S)-1-[4-(4-methyl-1,3-thiazol-5-yl)phenyl]ethyl}carbamoyl)pyrrolidin-1-yl]-3,3-dimethyl-1-oxobutan-2-yl}amino)-2-oxoethoxy][1,1′-biphenyl]-4-yl}-2,3,9-trimethyl-6H-thieno[3,2-f][1,2,4]triazolo[4,3-a][1,4]diazepin-6-yl]acetate]	0.083
0.75	COC(=O)C[C@@H]1N=C(c2ccc(-c3ccc(OCC(=O)N[C@H](C(=O)N4C[C@H](O)C[C@H]4C(=O)N[C@@H](C)c4ccc(-c5scnc5C)cc4)C(C)(C)C)cc3OC(F)(F)F)cc2)c2c(sc(C)c2C)-n2c(C)nnc21 [Example Compound 75, methyl [(6S)-4-{4′-[2-({(2S)-1-[(2S,4R)-4-hydroxy-2-({(1S)-1-[4-(4-methyl-1,3-thiazol-5-yl)phenyl]ethyl}carbamoyl)pyrrolidin-1-yl]-3,3-dimethyl-1-oxobutan-2-yl}amino)-2-oxoethoxy]-2′-(trifluoromethoxy)[1,1′-biphenyl]-4-yl}-2,3,9-trimethyl-6H-thieno[3,2-f] [1,2,4]triazolo[4,3-a][1,4]diazepin-6-yl]acetate]	0.39
0.041	COC(=O)C[C@@H]1N=C(c2ccc(-c3ccc(O[C@H]4C[C@H](C(=O)N[C@H](C(=O)N5C[C@H](O)C[C@H]5C(=O)N[C@@H](C)c5ccc(-c6scnc6C)cc5)C(C)(C)C)C4)nc3)cc2)c2c(sc(C)c2C)-n2c(C)nnc21 [Example 165, methyl {(6S)-4-[4-(6-{[trans-3-({(2S)-1-[(2S,4R)-4-hydroxy-2-({(1S)-1-[4-(4-methyl-1,3-thiazol-5-yl)phenyl]ethyl}carbamoyl)pyrrolidin-1-yl]-3,3-dimethyl-1-oxobutan-2-yl}carbamoyl)cyclobutyl]oxy}pyridin-3-yl)phenyl]-2,3,9-trimethyl-6H-thieno[3,2-f][1,2,4]triazolo[4,3-a] [1,4]diazepin-6-yl}acetate]	0.26
0.051	COC(=O)C[C@@H]1N=C(c2ccc(-c3ccc(NCC(=O)N[C@H](C(=O)N4C[C@H](O)C[C@H]4C(=O)N[C@@H](C)c4ccc(-c5scnc5C)cc4)C(C)(C)C)cc3)cc2)c2c(sc(C)c2C)-n2c(C)nnc21 [Example 45, methyl [(6S)-4-(4′-{[2-({(2S)-1-[(2S,4R)-4-hydroxy-2-({(1S)-1-[4-(4-methyl-1,3-thiazol-5-yl)phenyl]ethyl}carbamoyl)pyrrolidin-1-yl]-3,3-dimethyl-1-oxobutan-2-yl}amino)-2-oxoethyl]amino}[1,1′-biphenyl]-4-yl)-2,3,9-trimethyl-6H-thieno[3,2-f][1,2,4]triazolo[4,3-a] [1,4]diazepin-6-yl]acetate]	0.32
0.46	COC(=O)C[C@@H]1N=C(c2ccc(N3CC[C@H](C(=O)NCCOc4ccc5oc(C(=O)N[C@H](C(=O)N6C[C@H](O)C[C@H]6C(=O)N[C@@H](C)c6ccc(-c7scnc7C)cc6)C(C)(C)C)cc5c4)C3)cc2)c2c(sc(C)c2C)-n2c(C)nnc21 [Example Compound 68, methyl [(6S)-4-(4-{(3S)-3-[(2-{[2-({(2S)-1-[(2S,4R)-4-hydroxy-2-({(1S)-1-[4-(4-methyl-1,3-thiazol-5-yl)phenyl]ethyl}carbamoyl)pyrrolidin-1-yl]-3,3-dimethyl-1-oxobutan-2-yl}carbamoyl)-1-benzofuran-5-yl]oxy}ethyl)carbamoyl]pyrrolidin-1-yl}phenyl)-2,3,9-trimethyl-6H-thieno[3,2-f][1,2,4]triazolo[4,3-a][1,4]diazepin-6-yl]acetate]	0.52
0.042	COC(=O)C[C@@H]1N=C(c2ccc(N3CCc4cc(OCC(=O)N[C@H](C(=O)N5C[C@H](O)C[C@H]5C(=O)N[C@@H](C)c5ccc(-c6scnc6C)cc5)C(C)(C)C)ccc43)cc2)c2c(sc(C)c2C)-n2c(C)nnc21 [Example 151, methyl [(6S)-4-(4-{5-[2-({(2S)-1-[(2S,4R)-4-hydroxy-2-({(1S)-1-[4-(4-methyl-1,3-thiazol-5-yl)phenyl]ethyl}carbamoyl)pyrrolidin-1-yl]-3,3-dimethyl-1-oxobutan-2-yl}amino)-2-oxoethoxy]-2,3-dihydro-1H-indol-1-yl}phenyl)-2,3,9-trimethyl-6H-thieno[3,2-f][1,2,4]triazolo[4,3-a] [1,4]diazepin-6-yl]acetate]	0.058
0.61	COC(=O)C[C@@H]1N=C(c2ccc(-c3ccc(OC(C)C(=O)N[C@H](C(=O)N4C[C@H](O)C[C@H]4C(=O)N[C@@H](C)c4ccc(-c5scnc5C)cc4)C(C)(C)C)cc3)cc2)c2c(sc(C)c2C)-n2c(C)nnc21 (stereo partly drawn) [Example 50, methyl [(6S)-4-(4′-{[1-({(2S)-1-[(2S,4R)-4-hydroxy-2-({(1S)-1-[4-(4-methyl-1,3-thiazol-5-yl)phenyl]ethyl}carbamoyl)pyrrolidin-1-yl]-3,3-dimethyl-1-oxobutan-2-yl}amino)-1-oxopropan-2-yl]oxy}[1,1′-biphenyl]-4-yl)-2,3,9-trimethyl-6H-thieno[3,2-f][1,2,4]triazolo[4,3-a] [1,4]diazepin-6-yl]acetate]	0.25
